Here are results for four compounds from publication PMC10216478, “Development of a Non-Peptide Angiotensin II Type 1 Receptor Ligand by Structural Modification of Olmesartan as a Biased Agonist” (Biomedicines, 2023).

A word on the Kd: it is the equilibrium constant for the complex coming apart.

This assay addresses T1, AT1 Y292A receptor (Rattus norvegicus, UniProt P25095, Y292A).
T1 construct: expressed in transfected cells; host or cells: COS7
T1 sequence (P25095 1-359 Y292A): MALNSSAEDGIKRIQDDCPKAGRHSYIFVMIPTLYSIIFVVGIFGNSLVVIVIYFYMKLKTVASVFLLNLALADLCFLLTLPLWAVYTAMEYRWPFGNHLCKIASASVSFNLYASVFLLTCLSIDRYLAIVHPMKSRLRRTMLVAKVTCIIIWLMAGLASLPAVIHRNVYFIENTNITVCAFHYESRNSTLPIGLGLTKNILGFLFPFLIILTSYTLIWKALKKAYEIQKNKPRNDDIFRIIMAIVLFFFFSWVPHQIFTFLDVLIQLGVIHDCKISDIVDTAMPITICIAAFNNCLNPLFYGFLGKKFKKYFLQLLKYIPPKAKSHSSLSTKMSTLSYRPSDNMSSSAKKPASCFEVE
Kind of assay: Competition binding study, 125I-[Sar1,Ile8]Ang II, AT1 Y292A receptor. The settings on record: competition with 125I-[Sar1,Ile8]Ang II, n = 3, mean ± standard error, read-out: Binding affinity (Kd). An excerpt: We mutated four amino acids in transmembrane (TM) III, VI, and VII in the AT1 receptor (L112A, Q257A, Y292A, and N295A receptors). We determined the mutation sites of the AT1 receptor according to ARB, which produced olmesartan derivatives with different interactions and functions toward the AT1 receptor, as previously reported by Zhang et al., since the additional 4-hydroxybenzyl groups of R781253 and R794847 were predicted to extend to a sub-pocket on the bottom of the AT1 receptor ligand-binding pocket consisting of Leu^112 and Gln^257. In addition, since the biased ligand TRV027 induced changes near the NPxxY motif in TM domain 7 that are related to receptor activation, Tyr^292 and Asn^295 in the AT1 receptor were mutated.
The synthetic rat AT1 receptor gene, which was cloned in the shuttle expression vector pMT-2, was used for expression and mutagenesis, as described previously. COS7 cells (No. CRL-1651, ATCC, Manassas, VA, USA) were cultured in 10% fetal bovine serum (FBS) and penicillin- and streptomycin-supplemented Dulbecco’s modified Eagle’s essential medium (PS-DMEM) in 5% CO2 at 37 °C. In the experiments, cells were grown without a cell-growth supplement. To express the AT1 receptor protein, 10 µg of purified plasmid DNA per 10^7 cells was used in the transfection. Wild-type and mutated AT1 receptors were transiently transfected into cells using Lipofectamine 2000 liposomal reagent (Roche Applied Science, Penzberg, Germany). Cells were plated and grown and were 70–90% confluent at the time of transfection. We incubated plasmid DNA (10 µg)–lipid (10 µL) complexes for 5 min at room temperature and added and incubated the complexes with cells for 24 h. We then analyzed the parameters in transfected cells. Cell viability was >95% according to trypan blue exclusion analysis in the control experiments. Transfected cells that had been cultured for 48–72 h were harvested. Cell membranes were prepared using the nitrogen Parr bomb disruption or freeze–thaw methods.
The Kd (nM) values of receptor binding were determined with ^125I-[Sar^1, Ile^8]AngII-binding experiments under equilibrium conditions. Binding kinetics were determined following the methods described in the literature. We carried out binding by using ^125I-[Sar^1, Ile^8] AngII (2200 Ci/mmol) and an increasing concentration (10^−11–10^−5 M) of each unlabeled compound. Nonspecific binding of ^125I-[Sar^1, Ile^8] Ang II was determined in the presence of a high concentration (10^−6 M) of unlabeled [Sar^1, Ile^8]. Next, the incubation mixture was separated by vacuum filtration through Whatman GF/C glass filters (Disposable Filter Funnels Grade GF/C, GE Healthcare), and presoaked with 0.1% polyethylenimine. The filter was washed with 3 mL of ice-cold stop buffer (25 mM Tris–HCl, pH 7.4, 1 mM MgCl2). The radioactivity trapped on the filters was quantified using an automatic γ-counter. The percentage (%) of specific binding of ^125I-[Sar^1, Ile^8]Ang II was calculated using the following formula: 100 × (% total binding of ^125I-[Sar^1, Ile^8]Ang II—nonspecific binding of ^125I-[Sar^1, Ile^8]Ang II)/(% total binding of ^125I-[Sar^1, Ile^8]Ang II).
As for `CCCc1nc(C(C)(C)O)c(C(=O)O)n1Cc1ccc(-c2cc(Cc3ccc(O)cc3)ccc2-c2nnn[nH]2)cc1` [R781253], the Kd was found to be 95 ± 7 nM. Then `CCCc1nc(C(C)(C)O)c(C(N)=O)n1Cc1ccc(-c2cc(Cc3ccc(O)cc3)ccc2-c2nnn[nH]2)cc1` [R794847], with 30 ± 8 nM; and `CCCc1nc(C(C)(C)O)c(C(=O)O)n1Cc1ccc(-c2ccccc2-c2nnn[nH]2)cc1` [Olmesartan, olmesartan], with 47 ± 15 nM; and `CCCc1nc(C(C)(C)O)c(C(N)=O)n1Cc1ccc(-c2ccccc2-c2nnn[nH]2)cc1` [R239470], with 6.3 ± 3.8 nM.
